Our source for the Ki and inhibition values is US20120101110A1, “Diaza-spiro[5.5]undecanes” (priority 2010, published 2012).

One may read the Ki as a dissociation constant, usually derived from enzyme kinetics or from competition with a known ligand. By inhibition is commonly meant the percentage by which the read-out fell short of the control.

The target in one assay is T1, human orexin 2 receptors (Homo sapiens, UniProt O43614).
T1 sequence (O43614 1-444): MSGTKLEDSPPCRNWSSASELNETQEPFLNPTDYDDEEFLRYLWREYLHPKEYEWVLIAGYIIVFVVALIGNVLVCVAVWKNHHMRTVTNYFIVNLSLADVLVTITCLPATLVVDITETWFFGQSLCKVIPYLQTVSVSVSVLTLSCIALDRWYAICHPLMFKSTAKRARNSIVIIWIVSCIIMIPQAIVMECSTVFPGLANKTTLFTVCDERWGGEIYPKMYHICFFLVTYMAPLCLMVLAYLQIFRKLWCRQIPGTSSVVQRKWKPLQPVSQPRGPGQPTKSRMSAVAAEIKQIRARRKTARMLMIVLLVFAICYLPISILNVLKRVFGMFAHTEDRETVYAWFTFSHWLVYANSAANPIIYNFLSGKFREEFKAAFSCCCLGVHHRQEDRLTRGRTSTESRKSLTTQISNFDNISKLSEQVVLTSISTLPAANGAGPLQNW
Put plainly: Calcium accumulation in cells (FLIPR), hOx2R. Particulars: cells expressing human orexin 2 receptor; inhibition of orexin A-induced calcium accumulation; Cheng and Prusoff correction. It is filed as cell-based.

For the next assay, the target named is T2, human orexin 1 receptors (Homo sapiens, UniProt O43613).
T2 sequence (O43613 1-425): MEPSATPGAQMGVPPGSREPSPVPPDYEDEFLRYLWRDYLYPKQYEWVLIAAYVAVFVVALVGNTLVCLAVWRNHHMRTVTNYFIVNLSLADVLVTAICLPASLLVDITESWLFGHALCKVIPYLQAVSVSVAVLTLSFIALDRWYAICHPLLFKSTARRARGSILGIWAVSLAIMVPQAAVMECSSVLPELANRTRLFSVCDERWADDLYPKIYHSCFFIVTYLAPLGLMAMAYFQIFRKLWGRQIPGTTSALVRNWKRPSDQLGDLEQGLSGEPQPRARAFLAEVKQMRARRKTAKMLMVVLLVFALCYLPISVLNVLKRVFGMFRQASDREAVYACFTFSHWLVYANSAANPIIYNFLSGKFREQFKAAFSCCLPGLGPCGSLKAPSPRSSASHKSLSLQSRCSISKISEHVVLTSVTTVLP
Kind of assay: Calcium accumulation in cells (FLIPR), hOx1R. The following applies: for inhibition at 10 µM: read-out: FLIPR hOx1R % inhibition value.

Description for human orexin 1 receptors: Cells expressing human orexin 1 or human orexin 2 receptors, were seeded at 8,000 cells/well in 384 well black-walled clear bottom, poly-D-lysine coated plates. After 24 h, the medium was removed and cells were washed once with phosphate buffered saline and serum-deprived overnight in assay buffer (130 mM NaCl, 5.4 mM KCl, 1.8 mM CaCl2, 0.8 mM MgSO4, 0.9 mM NaH2PO4, 25 mM glucose, 20 mM HEPES, pH 7.4) containing bovine serum albumin (1% w/v).
On the day of the experiment, the cells seeded in black plates were treated with assay buffer containing the Ca^2+sensitive fluorescent dye Fluo-4-AM (2 μM), and probenecid (0.1 mM). After 1 h plates were washed twice with, and resuspended in, assay buffer containing probenecid (0.1 mM) using a multi plate washer. The plates were placed into a FLIPR II (Fluorometric Imaging Plate Reader, Molecular Devices, Sunnyvale, Calif., USA) and baseline fluorescence (fluorescence light units, FLU) was measured (5 measurements, 2 S each; laser excitation 488 nm at 0.6-1 W, CCD camera exposure 0.4 s) before addition of buffer alone (basal) or containing test compounds (either compound of formula I alone, agonist alone or agonist in the presence of various concentrations of compounds of formula I). Fluorescence measurements were then continued every 1 S for 120 S followed by every 4 S for 240 S.
Compounds of formula I were tested usually in a concentration range from 10^−9 M to 10^−5 M. In the second round, performed one hour later (to allow for equilibration), Orexin A was tested either in the absence (calibration curves, Orexin A agonist controls) or in the presence of compounds of formula I to determine antagonism.
Inhibition data is expressed in Table 2 as Ki [μM], converted by the Cheng and Prusoff correction (Ki=IC50/1+(L/EC50)), where IC50 is the 50% inhibition value determined in concentration response inhibition curves, EC50 is the half maximal activation concentration determined for orexin A in concentration response curves and L is the concentration of orexin A used in inhibition experiments performed in with a submaximal concentration of orexin A in the presence of up to 8 increasing concentrations of compound of formula I. Inhibition data is also expressed in Table 2 as % inhibition value measured at a concentration of 10 μM of selected compounds of formula I.

On to `CC(C)c1ccnc(N2CCC3(CCCN(Cc4c[nH]c5ccccc45)C3=O)CC2)n1` [Example 50, 2-((1H-indol-3-yl)methyl)-9-(4-isopropylpyrimidin-2-yl)-2,9-diazaspiro[5.5]undecan-1-one], for which the Ki at human orexin 2 receptors amounted to 223 nM; on human orexin 1 receptors, 1860 nM.

For the compound `CCOc1ccnc(N2CCC3(CCCN(Cc4c[nH]c5ccccc45)C3=O)CC2)n1` [Example 52, 2-((1H-indol-3-yl)methyl)-9-(4-ethoxypyrimidin-2-yl)-2,9-diazaspiro[5.5]undecan-1-one], the results for the Ki at human orexin 2 receptors and on human orexin 1 receptors were 125 nM and 1060 nM, respectively.

On to `Cn1cc(CN2CCCC3(CCN(c4cncc(Cl)n4)CC3)C2=O)c2ccccc21` [Example 53, 9-(6-chloropyrazin-2-yl)-2-((1-methyl-1H-indol-3-yl)methyl)-2,9-diazaspiro[5.5]undecan-1-one], for which the Ki at human orexin 2 receptors worked out at 420 nM; at human orexin 1 receptors, 2740 nM.

With `CCn1cc(CN2CCCC3(CCN(c4nc(C)cc(C)n4)CC3)C2=O)c2ccccc21` [Example 54, 9-(4,6-dimethylpyrimidin-2-yl)-2-((1-ethyl-1H-indol-3-yl)methyl)-2,9-diazaspiro[5.5]undecan-1-one], the Ki at human orexin 2 receptors was 149 nM; on human orexin 1 receptors, 3150 nM.

Regarding `COc1cncc(N2CCC3(CCCC(=O)N3Cc3c[nH]c4ccccc34)CC2)n1` [Example 55, 1-((1H-indol-3-yl)methyl)-9-(6-methoxypyrazin-2-yl)-1,9-diazaspiro[5.5]undecan-2-one], the Ki at human orexin 2 receptors was 727 nM. Moreover, at human orexin 1 receptors, the inhibition at 10 µM was determined as 40%.

`COc1cncc(N2CCC3(CCCN(Cc4cccc5c4OCCO5)C3=O)CC2)n1` [Example 56, 2-((2,3-dihydrobenzo[b][1,4]dioxin-5-yl)methyl)-9-(6-methoxypyrazin-2-yl)-2,9-diazaspiro[5.5]undecan-1-one]: the Ki on human orexin 2 receptors amounted to 718 nM. For the same compound, the inhibition at 10 µM at human orexin 1 receptors came to 35%.

For `Cc1cccc(N2CCC3(CCCN(Cc4c[nH]c5ccccc45)C3=O)CC2)c1` [Example 57, 2-((1H-indol-3-yl)methyl)-9-m-tolyl-2,9-diazaspiro[5.5]undecan-1-one], the Ki was determined as 171 nM on human orexin 2 receptors and 3750 nM on human orexin 1 receptors.

As for `Cc1cncc(N2CCC3(CCCN(Cc4c[nH]c5ccccc45)C3=O)CC2)c1` [Example 58, 2-((1H-indol-3-yl)methyl)-9-(5-methylpyridin-3-yl)-2,9-diazaspiro[5.5]undecan-1-one], on human orexin 2 receptors, the Ki was 156 nM. Also, the inhibition at 10 µM at human orexin 1 receptors was 31%.

On to `COc1ccc(N2CCC3(CCCN(Cc4c[nH]c5ccccc45)C3=O)CC2)cc1OC` [Example 59, 2-((1H-indol-3-yl)methyl)-9-(3,4-dimethoxyphenyl)-2,9-diazaspiro[5.5]undecan-1-one], for which, on human orexin 2 receptors, the Ki was found to be 1380 nM. Besides, at human orexin 1 receptors, the inhibition at 10 µM is 15%.

With `COc1cccc(N2CCC3(CCCN(Cc4c[nH]c5ccccc45)C3=O)CC2)c1` [Example 60, 2-((1H-indol-3-yl)methyl)-9-(3-methoxyphenyl)-2,9-diazaspiro[5.5]undecan-1-one], the Ki on human orexin 2 receptors amounted to 228 nM; at human orexin 1 receptors, 3110 nM.

Consider `COc1cncc(N2CCC3(CCCN(Cc4c[nH]c5ccccc45)C3=O)CC2)c1` [Example 62, 2-((1H-indol-3-yl)methyl)-9-(5-methoxypyridin-3-yl)-2,9-diazaspiro[5.5]undecan-1-one], for which, on human orexin 2 receptors, the Ki came out at 117 nM. The inhibition at 10 µM on human orexin 1 receptors worked out at 31%.

In the case of `Cc1cc(N2CCC3(CCCN(Cc4c[nH]c5ccccc45)C3=O)CC2)cc(C)n1` [Example 63, 2-((1H-indol-3-yl)methyl)-9-(2,6-dimethylpyridin-4-yl)-2,9-diazaspiro[5.5]undecan-1-one], the Ki on human orexin 2 receptors amounted to 1280 nM. Moreover, the inhibition at 10 µM on human orexin 1 receptors worked out at 16%.

On to `Cc1ccc(N2CCC3(CCCN(Cc4c[nH]c5ccccc45)C3=O)CC2)nc1C` [Example 64, 2-((1H-indol-3-yl)methyl)-9-(5,6-dimethylpyridin-2-yl)-2,9-diazaspiro[5.5]undecan-1-one], for which the Ki on human orexin 2 receptors was 150 nM; at human orexin 1 receptors, 3370 nM.

As for `Cc1cccnc1N1CCC2(CCCN(Cc3c[nH]c4ccccc34)C2=O)CC1` [Example 66, 2-((1H-indol-3-yl)methyl)-9-(3-methylpyridin-2-yl)-2,9-diazaspiro[5.5]undecan-1-one], on human orexin 2 receptors, the Ki amounted to 991 nM. Further, the inhibition at 10 µM on human orexin 1 receptors is 36%.

In the case of `Cc1ccc(N2CCC3(CCCN(Cc4c[nH]c5ccccc45)C3=O)CC2)nc1` [Example 68, 2-((1H-indol-3-yl)methyl)-9-(5-methylpyridin-2-yl)-2,9-diazaspiro[5.5]undecan-1-one], the Ki on human orexin 2 receptors amounted to 798 nM. Besides, the inhibition at 10 µM on human orexin 1 receptors came to 14%.

Consider `N#Cc1ccc(N2CCC3(CCCN(Cc4c[nH]c5ccccc45)C3=O)CC2)nc1` [Example 69, 6-(2-((1H-indol-3-yl)methyl)-1-oxo-2,9-diazaspiro[5.5]undecan-9-yl)nicotinonitrile], for which the Ki at human orexin 2 receptors came out at 320 nM. The inhibition at 10 µM on human orexin 1 receptors stood at 31%.

With `Cc1nccc(N2CCC3(CCCN(Cc4c[nH]c5ccccc45)C3=O)CC2)n1` [Example 70, 2-((1H-indol-3-yl)methyl)-9-(2-methylpyrimidin-4-yl)-2,9-diazaspiro[5.5]undecan-1-one], the Ki at human orexin 2 receptors was determined as 240 nM; at human orexin 1 receptors, 1810 nM.

As to `Cc1cc(N2CCC3(CCCN(Cc4c[nH]c5ccccc45)C3=O)CC2)nc(C)n1` [Example 71, 2-((1H-indol-3-yl)methyl)-9-(2,6-dimethylpyrimidin-4-yl)-2,9-diazaspiro[5.5]undecan-1-one], the Ki on human orexin 2 receptors amounted to 166 nM. Further, at human orexin 1 receptors, the inhibition at 10 µM turned out to be 31%.

As to `Cc1cnc(N2CCC3(CCCN(Cc4c[nH]c5ccccc45)C3=O)CC2)cn1` [Example 72, 2-((1H-indol-3-yl)methyl)-9-(5-methylpyrazin-2-yl)-2,9 diazaspiro[5.5]undecan-1-one], the Ki at human orexin 2 receptors is 280 nM. Moreover, at human orexin 1 receptors, the inhibition at 10 µM amounted to 16%.

Regarding `COCc1cccc(N2CCC3(CCCN(Cc4c[nH]c5ccccc45)C3=O)CC2)n1` [Example 73, 2-((1H-indol-3-yl)methyl)-9-(6-(methoxymethyl)pyridin-2-yl)-2,9-diazaspiro[5.5]undecan-1-one], the Ki at human orexin 2 receptors stood at 639 nM. Moreover, the inhibition at 10 µM at human orexin 1 receptors was determined as 30%.

With `N#Cc1cc(C#N)nc(N2CCC3(CCCN(Cc4c[nH]c5ccccc45)C3=O)CC2)n1` [Example 76, 2-(2-((1H-indol-3-yl)methyl)-1-oxo-2,9-diazaspiro[5.5]undecan-9-yl)pyrimidine-4,6-dicarbonitrile], the Ki on human orexin 2 receptors came to 1130 nM. At human orexin 1 receptors, the inhibition at 10 µM is below 10%.

`N#Cc1cncc(N2CCC3(CCCN(Cc4c[nH]c5ccccc45)C3=O)CC2)n1` [Example 77, 6-(2-((1H-indol-3-yl)methyl)-1-oxo-2,9-diazaspiro[5.5]undecan-9-yl)pyrazine-2-carbonitrile]: the Ki on human orexin 2 receptors is 173 nM; at human orexin 1 receptors it was 3630 nM.

On to `CCc1ccnc(N2CCC3(CCCN(Cc4c[nH]c5ccccc45)C3=O)CC2)n1` [Example 79, 2-((1H-indol-3-yl)methyl)-9-(4-ethylpyrimidin-2-yl)-2,9-diazaspiro[5.5]undecan-1-one], for which the inhibitory constant (Ki) turned out to be 126 nM on human orexin 2 receptors and 708 nM at human orexin 1 receptors.

For the compound `Cc1nnc(N2CCC3(CCCN(Cc4c[nH]c5ccccc45)C3=O)CC2)s1` [Example 85, 2-((1H-indol-3-yl)methyl)-9-(5-methyl-1,3,4-thiadiazol-2-yl)-2,9-diazaspiro[5.5]undecan-1-one], the Ki on human orexin 2 receptors was found to be 664 nM. In addition, the inhibition at 10 µM at human orexin 1 receptors was found to be 42%.

For the compound `Cc1cnc(C)c(N2CCC3(CCCN(Cc4c[nH]c5ccccc45)C3=O)CC2)n1` [Example 86, 2-((1H-indol-3-yl)methyl)-9-(3,6-dimethylpyrazin-2-yl)-2,9-diazaspiro[5.5]undecan-1-one], the Ki at human orexin 2 receptors came to 545 nM. Moreover, the inhibition at 10 µM on human orexin 1 receptors was 22%.

For `COc1cc(N2CCC3(CCCN(Cc4c[nH]c5ccccc45)C3=O)CC2)ncn1` [Example 87, 2-((1H-indol-3-yl)methyl)-9-(6-methoxypyrimidin-4-yl)-2,9-diazaspiro[5.5]undecan-1-one], the Ki on human orexin 2 receptors came to 351 nM. Moreover, the inhibition at 10 µM at human orexin 1 receptors was found to be 20%.

Regarding `O=C1N(Cc2c[nH]c3ccccc23)CCCC12CCN(c1ccc(C(F)(F)F)cn1)CC2` [Example 89, 2-((1H-indol-3-yl)methyl)-9-(5-(trifluoromethyl)pyridin-2-yl)-2,9-diazaspiro[5.5]undecan-1-one], the Ki at human orexin 2 receptors turned out to be 426 nM. Further, at human orexin 1 receptors, the inhibition at 10 µM is 18%.

As to `Cc1ccnc(N2CCC3(CCCC(=O)N3Cc3ccccc3-c3nc(C)no3)CC2)n1` [Example 99, 1-(2-(3-methyl-1,2,4-oxadiazol-5-yl)benzyl)-9-(4-methylpyrimidin-2-yl)-1,9-diazaspiro[5.5]undecan-2-one], the Ki at human orexin 2 receptors amounted to 614 nM. The inhibition at 10 µM on human orexin 1 receptors is 12%.
